Reference: patent publication US20240115527A1, “CXCR1/CXCR2 INHIBITORS FOR USE IN TREATING MYELOFIBROSIS” (Icahn School of Medicine at Mount Sinai, priority 2020, published 2024)

Tested on: MF CD34+ cells
Assay: Clonal assays of MF CD34+ cells; JAK2V617F allele status of picked hematopoietic colonies
Format: cell-based, human
Description: Individual hematopoietic colonies were randomly picked from clonal assays of CD34^+ cells from 6 MF cases and the JAK2V617F allele status was determined.
IL-8 alone increased the absolute numbers of JAK2V617F+ colonies, and the addition of Ladarixin reduced the numbers of JAK2V617F positive colonies stimulated by IL-8 (Tables 1-3).

[1] = MF1 CD34+ cells, ladarixin 10 μM + IL-8 10 ng
[2] = MF1 CD34+ cells, ladarixin 10 μM + IL-8 20 ng
[3] = MF1 CD34+ cells, ladarixin 10 μM + IL-8 50 ng
[4] = MF1 CD34+ cells, ladarixin 10 μM + IL-8 100 ng
[5] = MF1 CD34+ cells, ladarixin 10 μM, no IL-8
[6] = MF1 CD34+ cells, ladarixin 20 μM + IL-8 20 ng
[7] = MF1 CD34+ cells, ladarixin 20 μM, no IL-8
[8] = MF2 CD34+ cells, ladarixin 10 μM + IL-8 10 ng
[9] = MF2 CD34+ cells, ladarixin 10 μM + IL-8 20 ng
[10] = MF2 CD34+ cells, ladarixin 10 μM + IL-8 50 ng
[11] = MF2 CD34+ cells, ladarixin 10 μM + IL-8 100 ng
[12] = MF2 CD34+ cells, ladarixin 10 μM, no IL-8
[13] = MF2 CD34+ cells, ladarixin 20 μM + IL-8 20 ng
[14] = MF2 CD34+ cells, ladarixin 20 μM, no IL-8
[15] = MF3 CD34+ cells, ladarixin 10 μM + IL-8 10 ng
[16] = MF3 CD34+ cells, ladarixin 10 μM + IL-8 20 ng
[17] = MF3 CD34+ cells, ladarixin 10 μM + IL-8 50 ng
[18] = MF3 CD34+ cells, ladarixin 10 μM + IL-8 100 ng
[19] = MF3 CD34+ cells, ladarixin 10 μM, no IL-8
[20] = MF3 CD34+ cells, ladarixin 20 μM + IL-8 20 ng
[21] = MF3 CD34+ cells, ladarixin 20 μM, no IL-8
[22] = MF4 CD34+ cells, ladarixin 10 μM + IL-8 10 ng

C[C@@H](C(=O)NS(C)(=O)=O)c1ccc(OS(=O)(=O)C(F)(F)F)cc1 [Ladarixin, R(-)-2-[(4′-trifluoromethanesulfonyloxy)phenyl]-N-methanesulfonyl propionamide]
number of colonies, Heter (JAK2V617F heterozygous) [1]: 54 | number of colonies, Homo (JAK2V617F homozygous) [1]: 8 | number of colonies, WT (JAK2 wild type) [1]: 0 | number of colonies, Heter (JAK2V617F heterozygous) [2]: 56 | number of colonies, Homo (JAK2V617F homozygous) [2]: 4 | number of colonies, WT (JAK2 wild type) [2]: 4 | number of colonies, Heter (JAK2V617F heterozygous) [3]: 62 | number of colonies, Homo (JAK2V617F homozygous) [3]: 5 | number of colonies, WT (JAK2 wild type) [3]: 0 | number of colonies, Heter (JAK2V617F heterozygous) [4]: 58 | number of colonies, Homo (JAK2V617F homozygous) [4]: 8 | number of colonies, WT (JAK2 wild type) [4]: 0 | number of colonies, Heter (JAK2V617F heterozygous) [5]: 49 | number of colonies, Homo (JAK2V617F homozygous) [5]: 4 | number of colonies, WT (JAK2 wild type) [5]: 0 | number of colonies, Heter (JAK2V617F heterozygous) [6]: 49 | number of colonies, Homo (JAK2V617F homozygous) [6]: 4 | number of colonies, WT (JAK2 wild type) [6]: 9 | number of colonies, Heter (JAK2V617F heterozygous) [7]: 43 | number of colonies, Homo (JAK2V617F homozygous) [7]: 0 | number of colonies, WT (JAK2 wild type) [7]: 16 | number of colonies, Heter (JAK2V617F heterozygous) [8]: 0 | number of colonies, Homo (JAK2V617F homozygous) [8]: 0 | number of colonies, WT (JAK2 wild type) [8]: 49 | number of colonies, Heter (JAK2V617F heterozygous) [9]: 3 | number of colonies, Homo (JAK2V617F homozygous) [9]: 0 | number of colonies, WT (JAK2 wild type) [9]: 35 | number of colonies, Heter (JAK2V617F heterozygous) [10]: 0 | number of colonies, Homo (JAK2V617F homozygous) [10]: 0 | number of colonies, WT (JAK2 wild type) [10]: 44 | number of colonies, Heter (JAK2V617F heterozygous) [11]: 0 | number of colonies, Homo (JAK2V617F homozygous) [11]: 0 | number of colonies, WT (JAK2 wild type) [11]: 46 | number of colonies, Heter (JAK2V617F heterozygous) [12]: 0 | number of colonies, Homo (JAK2V617F homozygous) [12]: 0 | number of colonies, WT (JAK2 wild type) [12]: 36 | number of colonies, Heter (JAK2V617F heterozygous) [13]: 0 | number of colonies, Homo (JAK2V617F homozygous) [13]: 0 | number of colonies, WT (JAK2 wild type) [13]: 47 | number of colonies, Heter (JAK2V617F heterozygous) [14]: 0 | number of colonies, Homo (JAK2V617F homozygous) [14]: 0 | number of colonies, WT (JAK2 wild type) [14]: 44 | number of colonies, Heter (JAK2V617F heterozygous) [15]: 110 | number of colonies, Homo (JAK2V617F homozygous) [15]: 17 | number of colonies, WT (JAK2 wild type) [15]: 8 | number of colonies, Heter (JAK2V617F heterozygous) [16]: 17 | number of colonies, Homo (JAK2V617F homozygous) [16]: 69 | number of colonies, WT (JAK2 wild type) [16]: 51 | number of colonies, Heter (JAK2V617F heterozygous) [17]: 50 | number of colonies, Homo (JAK2V617F homozygous) [17]: 67 | number of colonies, WT (JAK2 wild type) [17]: 34 | number of colonies, Heter (JAK2V617F heterozygous) [18]: 0 | number of colonies, Homo (JAK2V617F homozygous) [18]: 109 | number of colonies, WT (JAK2 wild type) [18]: 49 | number of colonies, Heter (JAK2V617F heterozygous) [19]: 13 | number of colonies, Homo (JAK2V617F homozygous) [19]: 73 | number of colonies, WT (JAK2 wild type) [19]: 13 | number of colonies, Heter (JAK2V617F heterozygous) [20]: 0 | number of colonies, Homo (JAK2V617F homozygous) [20]: 70 | number of colonies, WT (JAK2 wild type) [20]: 53 | number of colonies, Heter (JAK2V617F heterozygous) [21]: 28 | number of colonies, Homo (JAK2V617F homozygous) [21]: 49 | number of colonies, WT (JAK2 wild type) [21]: 35 | number of colonies, Heter (JAK2V617F heterozygous) [22]: 137 | number of colonies, Homo (JAK2V617F homozygous) [22]: 0
